# Compound: CN1CCN(CC1)C2=CC(=C(C=C2)NC3=NC(=C(S3)C(=O)C4=C(C=CC=C4Cl)Cl)N)OC [XMD14-99] + CCNC(=O)c1noc(-c2cc(C(C)C)c(O)cc2O)c1-c1ccc(CN2CCOCC2)cc1 [Luminespib] (partner 0.01 µM)
# Assay: relative viability (nuclei count vs DMSO), 5 days (fraction); higher = more cells survive
# Conditions: first compound 0.08 µM
# Method in brief: (§1)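 After 5 days of treatment, lung cancer cells in 1536-well plates were fixed and stained in a single step (final 0.05% Triton X-100, 1% formaldehyde, 1 ug/ml Hoechst) and their nuclei counted on 4× images. Treatment had been applied by pin tool the day after seeding as one drug alone or as a fixed anchor-drug dose with five library-drug doses (not always all listed) in √10 steps. Relative viability is the nuclei count of treated wells divided by that of vehicle wells, and values are medians of duplicate plates.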
row,Cell Line,relative viability
1,NCI-H522,1.05
2,NCI-H1623,0.509
3,NCI-H838,0.28
4,NCI-H1650,0.21
5,NCI-H2009,1.08
6,NCI-H1993,0.849
7,PC-14,0.156
8,LCLC-103H,0.984
9,NCI-H596,1.05
10,NCI-H2228,0.147
11,EMC-BAC-2,1.19
12,NCI-H2087,0.151
13,NCI-H1666,1.05
14,NCI-H647,0.322
15,LK-2,0.183
16,NCI-H2126,0.966
17,NCI-H2342,0.778
18,SK-MES-1,0.786
19,H3255,0.958

row,Cell Line,relative viability
1,COR-L23,0.578
2,COR-L 105,0.693
3,LOU-NH91,0.443
4,ChaGo-K-1,0.565
5,NCI-H2170,0.652
6,NCI-H3122,0.0829
7,HOP-62,0.93
8,HCC-44,1.01
9,SW 900,0.165
10,LU99A,0.288
11,BEN,0.377
12,HARA,0.311
13,NCI-H441,0.351
14,LCLC-97TM1,0.843
15,NCI-H2023,0.719
16,A-427,1.02
17,NCI-H1792,0.543
18,NCI-H1563,0.505

# Same assay, conditions: first compound 0.8 µM
row,Cell Line,relative viability
1,NCI-H522,1.28
2,NCI-H1623,0.475
3,NCI-H838,0.293
4,NCI-H1650,0.208
5,NCI-H2009,0.949
6,NCI-H1993,0.761
7,PC-14,0.151
8,LCLC-103H,1.1
9,NCI-H596,1.11
10,NCI-H2228,0.19
11,EMC-BAC-2,1.13
12,NCI-H2087,0.173
13,NCI-H1666,0.936
14,NCI-H647,0.233
15,LK-2,0.188
16,NCI-H2126,0.827
17,NCI-H2342,0.725
18,SK-MES-1,0.73

row,Cell Line,relative viability
1,H3255,0.934
2,COR-L23,0.613
3,COR-L 105,0.845
4,LOU-NH91,0.325
5,ChaGo-K-1,0.599
6,NCI-H2170,0.59
7,NCI-H3122,0.0788
8,HOP-62,0.878
9,HCC-44,0.968
10,SW 900,0.163
11,LU99A,0.252
12,BEN,0.419
13,HARA,0.685
14,NCI-H441,0.352
15,LCLC-97TM1,0.747
16,A-427,1.07
17,NCI-H1792,0.456
18,NCI-H1563,0.551

# Same assay, conditions: first compound 2.53 µM
row,Cell Line,relative viability
1,NCI-H522,1.2
2,NCI-H1623,0.454
3,NCI-H838,0.239
4,NCI-H1650,0.189
5,NCI-H2009,0.958
6,NCI-H1993,0.782
7,PC-14,0.156
8,LCLC-103H,0.84
9,NCI-H596,0.917
10,NCI-H2228,0.153
11,EMC-BAC-2,0.99
12,NCI-H2087,0.179
13,NCI-H1666,0.949
14,NCI-H647,0.23
15,LK-2,0.206
16,NCI-H2126,0.873
17,NCI-H2342,0.787
18,SK-MES-1,0.729
19,H3255,0.781

row,Cell Line,relative viability
1,COR-L23,0.515
2,COR-L 105,0.778
3,LOU-NH91,0.294
4,ChaGo-K-1,0.609
5,NCI-H2170,0.755
6,NCI-H3122,0.132
7,HOP-62,0.846
8,HCC-44,1.07
9,SW 900,0.204
10,LU99A,0.247
11,BEN,0.271
12,HARA,0.581
13,NCI-H441,0.311
14,LCLC-97TM1,0.728
15,NCI-H2023,0.617
16,A-427,0.875
17,NCI-H1792,0.354
18,NCI-H1563,0.546

# Same assay, conditions: first compound 8 µM
row,Cell Line,relative viability
1,NCI-H522,1.18
2,NCI-H1623,0.444
3,NCI-H838,0.235
4,NCI-H1650,0.188
5,NCI-H2009,0.871
6,NCI-H1993,0.632
7,PC-14,0.171
8,LCLC-103H,0.847
9,NCI-H596,0.983
10,NCI-H2228,0.104
11,EMC-BAC-2,1.01
12,NCI-H2087,0.135
13,NCI-H1666,0.88
14,NCI-H647,0.0995
15,LK-2,0.171
16,NCI-H2126,0.595
17,NCI-H2342,0.745
18,SK-MES-1,0.566
19,H3255,0.614

row,Cell Line,relative viability
1,COR-L23,0.419
2,COR-L 105,0.466
3,LOU-NH91,0.3
4,ChaGo-K-1,0.513
5,NCI-H2170,0.372
6,NCI-H3122,0.0985
7,HOP-62,0.778
8,HCC-44,0.753
9,SW 900,0.144
10,LU99A,0.219
11,BEN,0.285
12,HARA,0.207
13,NCI-H441,0.276
14,LCLC-97TM1,0.516
15,NCI-H2023,0.471
16,A-427,0.617
17,NCI-H1792,0.326
18,NCI-H1563,0.48

# Compound: CN1CCN(CC1)C2=CC(=C(C=C2)NC3=NC(=C(S3)C(=O)C4=C(C=CC=C4Cl)Cl)N)OC [XMD14-99] + Cc1nc(Nc2ncc(C(=O)Nc3c(C)cccc3Cl)s2)cc(N2CCN(CCO)CC2)n1 [Dasatinib] (partner 0.075 µM)
# Assay: as above
# Conditions: first compound 0.08 µM
# Method in brief: as §1
row,Cell Line,relative viability
1,NCI-H522,0.821
2,NCI-H1623,0.542
3,NCI-H838,0.303
4,NCI-H1650,0.335
5,NCI-H2009,0.263
6,NCI-H1993,0.656
7,PC-14,0.254
8,LCLC-103H,0.383
9,NCI-H596,0.597
10,NCI-H2228,0.376
11,EMC-BAC-2,0.311
12,NCI-H2087,0.739
13,HCC-366,0.596
14,NCI-H1666,0.826
15,NCI-H647,0.12
16,LK-2,0.279
17,NCI-H2126,0.617
18,NCI-H2342,0.29
19,SK-MES-1,0.381

row,Cell Line,relative viability
1,H3255,0.437
2,COR-L23,0.556
3,COR-L 105,0.345
4,LOU-NH91,0.591
5,ChaGo-K-1,0.564
6,NCI-H2170,0.612
7,NCI-H3122,0.81
8,HOP-62,0.635
9,SW 900,0.662
10,LU99A,0.655
11,BEN,0.29
12,HARA,0.274
13,HCC-78,0.421
14,NCI-H441,0.537
15,LCLC-97TM1,0.837
16,NCI-H2023,0.536
17,A-427,0.624
18,NCI-H1792,0.73
19,NCI-H1563,0.452

# Same assay, conditions: first compound 0.8 µM
row,Cell Line,relative viability
1,NCI-H522,0.93
2,NCI-H1623,0.515
3,NCI-H838,0.324
4,NCI-H1650,0.289
5,NCI-H2009,0.294
6,NCI-H1993,0.539
7,PC-14,0.226
8,LCLC-103H,0.582
9,NCI-H596,0.604
10,NCI-H2228,0.451
11,EMC-BAC-2,0.334
12,NCI-H2087,0.714
13,HCC-366,0.609
14,NCI-H1666,0.803
15,NCI-H647,0.216
16,LK-2,0.214
17,NCI-H2126,0.632
18,NCI-H2342,0.292
19,SK-MES-1,0.398

row,Cell Line,relative viability
1,H3255,0.496
2,COR-L23,0.452
3,COR-L 105,0.388
4,LOU-NH91,0.584
5,ChaGo-K-1,0.6
6,NCI-H2170,0.62
7,NCI-H3122,0.745
8,HOP-62,0.658
9,SW 900,0.784
10,LU99A,0.526
11,BEN,0.36
12,HARA,0.249
13,HCC-78,0.299
14,NCI-H441,0.493
15,LCLC-97TM1,0.766
16,NCI-H2023,0.607
17,A-427,0.651
18,NCI-H1792,0.71
19,NCI-H1563,0.464

# Same assay, conditions: first compound 2.53 µM
row,Cell Line,relative viability
1,NCI-H522,0.83
2,NCI-H1623,0.516
3,NCI-H838,0.245
4,NCI-H1650,0.316
5,NCI-H2009,0.261
6,NCI-H1993,0.457
7,PC-14,0.224
8,LCLC-103H,0.472
9,NCI-H596,0.572
10,NCI-H2228,0.405
11,EMC-BAC-2,0.334
12,NCI-H2087,0.55
13,HCC-366,0.603
14,NCI-H1666,0.743
15,NCI-H647,0.202
16,LK-2,0.281
17,NCI-H2126,0.513
18,NCI-H2342,0.354
19,SK-MES-1,0.336

row,Cell Line,relative viability
1,H3255,0.347
2,COR-L23,0.337
3,COR-L 105,0.255
4,LOU-NH91,0.541
5,ChaGo-K-1,0.51
6,NCI-H2170,0.601
7,NCI-H3122,0.754
8,HOP-62,0.656
9,SW 900,0.702
10,LU99A,0.464
11,BEN,0.25
12,HARA,0.273
13,HCC-78,0.431
14,NCI-H441,0.463
15,LCLC-97TM1,0.73
16,NCI-H2023,0.739
17,A-427,0.545
18,NCI-H1792,0.631
19,NCI-H1563,0.449

# Same assay, conditions: first compound 8 µM
row,Cell Line,relative viability
1,NCI-H522,0.805
2,NCI-H1623,0.504
3,NCI-H838,0.216
4,NCI-H1650,0.2
5,NCI-H2009,0.164
6,NCI-H1993,0.489
7,PC-14,0.11
8,LCLC-103H,0.442
9,NCI-H596,0.562
10,NCI-H2228,0.148
11,EMC-BAC-2,0.286
12,NCI-H2087,0.305
13,HCC-366,0.528
14,NCI-H1666,0.59
15,NCI-H647,0.167
16,LK-2,0.204
17,NCI-H2126,0.402
18,NCI-H2342,0.285
19,SK-MES-1,0.225

row,Cell Line,relative viability
1,H3255,0.249
2,COR-L23,0.183
3,COR-L 105,0.281
4,LOU-NH91,0.472
5,ChaGo-K-1,0.483
6,NCI-H2170,0.592
7,NCI-H3122,0.503
8,HOP-62,0.496
9,SW 900,0.426
10,LU99A,0.305
11,BEN,0.244
12,HARA,0.189
13,HCC-78,0.239
14,NCI-H441,0.504
15,LCLC-97TM1,0.559
16,NCI-H2023,0.404
17,A-427,0.479
18,NCI-H1792,0.503
19,NCI-H1563,0.447

# Compound: CN1CCN(CC1)C2=CC(=C(C=C2)NC3=NC(=C(S3)C(=O)C4=C(C=CC=C4Cl)Cl)N)OC [XMD14-99] + O=C(CCCCCCC(=O)Nc1ccccc1)NO [Vorinostat] (partner 1 µM)
# Assay: as above
# Conditions: first compound 0.08 µM
# Method in brief: as §1
row,Cell Line,relative viability
1,NCI-H522,0.809
2,NCI-H838,0.685
3,NCI-H1650,0.554
4,NCI-H2009,0.815
5,NCI-H1993,0.595
6,PC-14,0.636
7,LCLC-103H,0.786
8,NCI-H596,0.635
9,NCI-H2228,0.719
10,EMC-BAC-2,0.493
11,NCI-H2087,0.617
12,HCC-366,0.42
13,NCI-H1666,1.04
14,NCI-H647,0.522
15,LK-2,0.364
16,NCI-H2126,0.694
17,NCI-H2342,0.747
18,SK-MES-1,1.08
19,H3255,0.756
20,COR-L23,0.409
21,COR-L 105,0.833

# — the supplement of paper PMC10307832
